pIC50, pKi: −log10 of the molar value. Peptide text beside a SMILES is read from it.
Legend:
[1] = biological target: T1, angiotensin-converting enzyme (ACE) (Homo sapiens, UniProt P12821); assay: ACE-inhibitory activity, ACE Kit-WST (Dojindo); type: biochemical; conditions: peptide 0.01-1000 µM, 37 °C 1 h, absorbance 450 nm, triplicate, read-out: IC50 (ACE inhibition)
T1 construct: purchased Dojindo Laboratories, Kumamoto, Japan
Procedure: The ACE-inhibitory activity of the peptides was evaluated in vitro using the Dojindo assay kit, following the same procedure as described in our previous study. […] Captopril was used as a positive control to validate the assay system. To assess the stability of the peptides under simulated gastrointestinal (GI) conditions, a two-step enzymatic hydrolysis was conducted. The ACE-inhibitory activity of the peptides was measured both before and after digestion (Figure 1B,C).
The ACE-inhibitory activity of the peptides was assessed using the ACE Kit-WST (Dojindo Laboratories, Kumamoto, Japan) following the manufacturer’s protocol. Both peptides were dissolved in distilled water, and serial dilutions were prepared at concentrations of 0.01, 0.10, 1, 10, 100, and 1000 µM. Captopril was used as the positive control. For the assay, 20 µL of each sample solution was added to the designated wells, including the sample, blank 1, and blank 2 wells. Subsequently, 20 µL of substrate buffer was added to all wells. […] Absorbance was measured at 450 nm using a microplate reader. ACE-inhibitory activity was calculated using the following equation:ACE inhibition (%) = (Ablank1 − Asample)/(Ablank1 − Ablank2) × 100 where Ablank1 is the absorbance of the control (without inhibitor), Ablank2 is the absorbance of the reagent alone, and Asample is the absorbance of the peptide-treated sample.

[2] = system: pepsin, trypsin and chymotrypsin; assay: Resistance to simulated GI digestion assay; type: in vitro ADME; conditions: peptide 100 and 200 µM; pepsin 0.01% pH 2.0, 37 °C, 3 h, then trypsin and chymotrypsin each 0.01% pH 7.5, 3 h; read-out ACE-inhibitory activity; triplicate
Procedure: The stability of the synthesized peptides against gastrointestinal proteases was evaluated using a slightly modified method based on Dong et al. (2024). Peptide solutions at concentrations of 100 and 200 µM were sequentially subjected to enzymatic digestion. Initially, the peptides were incubated with pepsin (0.01%, pH 2.0) at 37 °C for 3 h. This was followed by a second digestion step with trypsin and chymotrypsin (each at 0.01%, pH 7.5) for an additional 3 h under the same temperature conditions. To terminate enzymatic activity, the reaction mixtures were boiled for 10 min. The samples were then centrifuged at 8000× g for 15 min, and the resulting supernatants were collected. The ACE-inhibitory activity of the digested peptide solutions was subsequently analyzed to assess their enzymatic stability.

ACE = ACE (Homo sapiens, UniProt P12821); assay: Lineweaver–Burk plot and secondary plot (ACE inhibition kinetics); type: biochemical; conditions: secondary plot from Lineweaver–Burk plots; substrate HHL 0.625 to 20 mM
Procedure: The inhibition pattern of the peptides against ACE was analyzed using Lineweaver–Burk plots. ACE activity was measured at varying concentrations of each peptide (IGDEPRHQYL: 0, 5, and 10 µM; IVGRPLANG: 0, 20, and 40 µM) in the presence of different concentrations of the substrate hippuryl-histidyl-leucine (HHL), ranging from 0.625 to 20 mM. The Michaelis constant (Km) and maximum reaction velocity (Vmax) were calculated from the slope and y-intercept of the Lineweaver–Burk plots. Additionally, secondary plots were generated to determine the inhibition constant (Ki) values for each peptide based on the derived Km and Vmax values.

Chain of ACE (P12821 30-1306, species assumed): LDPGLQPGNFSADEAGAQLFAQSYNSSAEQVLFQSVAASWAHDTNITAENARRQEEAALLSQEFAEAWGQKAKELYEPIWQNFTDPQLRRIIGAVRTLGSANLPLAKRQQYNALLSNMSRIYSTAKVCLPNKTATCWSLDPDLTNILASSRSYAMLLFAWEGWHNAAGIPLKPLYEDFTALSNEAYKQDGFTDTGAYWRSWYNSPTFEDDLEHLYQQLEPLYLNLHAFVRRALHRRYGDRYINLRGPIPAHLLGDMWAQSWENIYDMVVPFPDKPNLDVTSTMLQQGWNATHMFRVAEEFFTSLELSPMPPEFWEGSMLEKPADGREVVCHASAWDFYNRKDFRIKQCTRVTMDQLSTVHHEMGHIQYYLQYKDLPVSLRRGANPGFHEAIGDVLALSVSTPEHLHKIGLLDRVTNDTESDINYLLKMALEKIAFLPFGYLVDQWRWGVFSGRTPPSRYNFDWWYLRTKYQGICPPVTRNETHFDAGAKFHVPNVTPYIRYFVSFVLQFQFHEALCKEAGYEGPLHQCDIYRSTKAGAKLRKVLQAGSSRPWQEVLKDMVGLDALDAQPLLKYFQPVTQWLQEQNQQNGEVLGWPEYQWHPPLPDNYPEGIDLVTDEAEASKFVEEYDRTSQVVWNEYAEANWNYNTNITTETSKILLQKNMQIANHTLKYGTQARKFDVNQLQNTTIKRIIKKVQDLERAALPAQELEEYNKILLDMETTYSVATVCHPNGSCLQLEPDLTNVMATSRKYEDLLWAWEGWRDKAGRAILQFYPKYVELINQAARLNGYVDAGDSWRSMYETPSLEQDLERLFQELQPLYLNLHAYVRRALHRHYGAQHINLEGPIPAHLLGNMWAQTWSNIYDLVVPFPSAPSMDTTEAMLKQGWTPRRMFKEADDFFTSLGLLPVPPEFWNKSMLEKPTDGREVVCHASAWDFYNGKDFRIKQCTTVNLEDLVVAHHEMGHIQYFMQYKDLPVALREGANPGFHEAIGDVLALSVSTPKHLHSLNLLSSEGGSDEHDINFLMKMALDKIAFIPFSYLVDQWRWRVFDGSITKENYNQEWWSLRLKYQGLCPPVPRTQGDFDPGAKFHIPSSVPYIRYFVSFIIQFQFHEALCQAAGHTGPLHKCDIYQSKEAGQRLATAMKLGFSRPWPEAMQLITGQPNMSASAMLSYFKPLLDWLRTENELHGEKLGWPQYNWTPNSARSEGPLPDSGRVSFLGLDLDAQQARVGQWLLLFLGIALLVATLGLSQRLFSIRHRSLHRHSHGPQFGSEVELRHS
T1 sequence (P12821 30-1306, species assumed): as above

| SMILES | pIC50 [1] | ACE-inhibitory activity before and after simulated GI digestion [2] | pKi (ACE) |
| --- | --- | --- | --- |
| CC[C@H](C)[C@H](N)C(=O)NCC(=O)N[C@@H](CC(=O)O)C(=O)N[C@@H](CCC(=O)O)C(=O)N1CCC[C@H]1C(=O)N[C@@H](CCCNC(=N)N)C(=O)N[C@@H](Cc1c[nH]cn1)C(=O)N[C@@H](CCC(N)=O)C(=O)N[C@@H](Cc1ccc(O)cc1)C(=O)N[C@@H](CC(C)C)C(=O)O [IGDEPRHQYL] (H-IGDEPRHQYL-OH) | 5.25 | retained their ACE-inhibitory activity | 5.26 |
| CC[C@H](C)[C@H](N)C(=O)N[C@H](C(=O)NCC(=O)N[C@@H](CCCNC(=N)N)C(=O)N1CCC[C@H]1C(=O)N[C@@H](CC(C)C)C(=O)N[C@@H](C)C(=O)N[C@@H](CC(N)=O)C(=O)NCC(=O)O)C(C)C [IVGRPLANG] (H-IVGRPLANG-OH) | 4.62 | retained their ACE-inhibitory activity | 4.29 |

— publication PMC12298423, “Characterization of Novel ACE-Inhibitory Peptides from Nemopilema nomurai Jellyfish Venom Hydrolysate: In Vitro and In Silico Approaches” (Marine Drugs, 2025)
